The text below walks through data of a melting point compilation (Tetko et al.).

For orientation: melting point means the temperature of the solid-liquid transition.

Take `Cn1cc(C(N)C(=O)O)cn1` (stereo not drawn): the melting point was 245 to 247 °C. Take `Cc1ccc(SCCC(=O)O)cc1C`: the melting point is 35 to 37 °C. With `COc1ccccc1NC(=O)NC1CCNCC1`, the melting point was 83 to 85 °C. For the molecule `Nc1nc2cc(Cl)cc(Br)c2o1`, the melting point fell in the range of 228 to 230 °C.

`N#Cc1nc(N)[nH]c1C#N` showed a melting point of 270 to 272 °C. To `CC(=O)N1CCN(CC#N)CC1` belongs 107 to 109 °C; to `O=C(O)C1CCCN(S(=O)(=O)c2ccc(F)cc2)C1` (stereo not drawn), 156 to 160 °C. `N#CC(N)c1ccc(OCc2ccccc2)cc1` (stereo not drawn): the melting point lay in the range of 111 to 113 °C. To `O=C(O)c1cc2ccc(F)cc2s1` belongs 220 to 222 °C; to `CCC(CC)n1nc(C(=O)O)cc1C`, 110 to 112 °C.

Consider `O=C(O)CC1COC(=O)C1` (stereo not drawn), for which the melting point was 83 to 85 °C.

Molecule `c1ccc(-c2nnc(-c3ccccc3)[nH]2)cc1` came in with a melting point of 189 to 191 °C. Consider `O=C(O)c1cc(F)cc2[nH]c(S)nc12`, for which the melting point lay in the range of 374 to 376 °C. The value for `NC(=O)c1cccc(C(=O)O)n1` was 249 to 251 °C. As for `Cc1nc2ccccn2c1CN1CCNCC1`, the melting point lay within 163 to 165 °C. `O=C(O)Cc1ccc([N+](=O)[O-])cc1F` displayed a melting point of 162 to 164 °C. The molecule `O=C(O)CCc1cnn(-c2ccccc2)c1` came in with a melting point of 80 to 89 °C. In the case of `COc1ccc(Cl)cc1/C=C/C(=O)O`, the melting point was 199 to 201 °C.

Regarding `O=C(O)C1(C(=O)NC2CC2)CC1`, the melting point was in the range of 145 to 147 °C.

`O=C(O)C1(O)CCC1`: the melting point lay in the range of 39 to 41 °C.

Regarding `CS(=O)(=O)N1CCCCC1C(=O)O` (stereo not drawn), the melting point lay in the range of 74 to 76 °C. On to `COc1cc(C=O)ccc1OCc1c(C)noc1C`, for which the melting point lay in the range of 111 to 115 °C. The value for `Cc1c(C(=O)O)cnc2ccccc12` was 254 to 256 °C; that for `NC1c2ccccc2-c2ccccc21` was 43 to 45 °C; that for `CCc1sc(C(=O)O)cc1Br` was 155 to 157 °C.

On to `NNC(=O)c1cc(-c2ccc(Cl)cc2)nc2ccccc12`, for which the melting point is 238 to 240 °C. `Cc1c(S(=O)(=O)Cl)cnn1-c1ccc(F)cc1` gave a melting point of 96 to 98 °C.

`Nc1ccc(F)c(N(S(=O)(=O)c2ccccc2)S(=O)(=O)c2ccccc2)c1` gave a melting point of 159 to 161 °C. `COC(=O)C(C)Sc1ccccc1C(=O)O` (stereo not drawn): the melting point lay within 118 to 120 °C. Take `CCn1nnnc1-c1cccc(N)c1`: the melting point lay within 118 to 120 °C. As to `ClCc1nc(-c2cccs2)n[nH]1`, the melting point fell in the range of 159 to 161 °C. `NCC(O)CS(=O)(=O)c1cccs1` (stereo not drawn) had a melting point of 111 to 113 °C.

`Cc1nn(C(C)C)c(C)c1NC(=O)OCC(F)(F)F` yielded a melting point of 185 to 187 °C. In the case of `COC(=O)c1csc(Br)c1`, the melting point is 37 to 39 °C. `O=C1C(Br)CCCN1c1ccccc1` (stereo not drawn) showed a melting point of 80 to 82 °C. To `N#Cc1ccccc1S(=O)(=O)N1CCC(C(=O)O)CC1` belongs 150 to 152 °C. For the molecule `NC(=NO)c1ccccc1OCc1ccccc1`, the melting point fell in the range of 120 to 122 °C.

Molecule `O=C(O)CCSc1ccc2c(c1)OCCCO2` registered a melting point of 63 to 65 °C. Turning to `O=C(O)CC1CSCCS1` (stereo not drawn), the melting point fell in the range of 77 to 79 °C. As for `CC(C)c1cc(N)on1`, the melting point was 33 to 35 °C.

For `ON=Cc1ccncn1`, the melting point lay within 150 to 152 °C. As for `CS(=O)(=O)Nc1ccccc1Br`, the melting point was 79 to 81 °C. Molecule `CCCCCCOc1ccc(C=O)cc1OC` had a melting point of 38 to 42 °C. The molecule `O=Cc1cc(F)cc(F)c1` came in with a melting point of 17 to 19 °C. `N#Cc1c(F)cccc1S(=O)(=O)Cl` came in with a melting point of 63 to 65 °C. `O=C(O)C1(O)Cc2ccccc2C1` had a melting point of 176 to 178 °C.

For the molecule `CC(=O)c1c(C)nc2ccccc2c1N`, the melting point is 152 to 154 °C. Consider `CN(C(=O)CC#N)c1ccccc1`, for which the melting point lay within 86 to 88 °C. For the molecule `Cc1cc(=O)n2c([nH]c3ccccc32)c1C#N`, the melting point lay within 270 to 272 °C. The value for `N#Cc1ccc(CBr)c(F)c1` was 75 to 77 °C. The value for `O=C(O)c1ccc(OC2CCCC2)cc1` was 171 to 173 °C; that for `NNC(=O)c1ccc(CSc2nc3ccccc3[nH]2)cc1` was 64 to 66 °C. `CCCNc1ccc(Cl)cc1N` came in with a melting point of 62 to 64 °C. For the molecule `NC(=O)c1cccnc1S`, the melting point was in the range of 297 to 299 °C.

`Cc1ccc(S(=O)(=O)OCC2CCOCO2)cc1` (stereo not drawn) had a melting point of 63 to 65 °C. The value for `CC(C)c1ccc(S(=O)(=O)c2ccc(NN)cc2)cc1` was 191 to 193 °C; that for `C=CC(=O)ON=C(N)c1ccc(Cl)cc1` was 120 to 122 °C; that for `O=C(O)CNC1=NS(=O)(=O)c2ccccc21` was 160 to 162 °C. Regarding `CC(C)(C)c1ccc(S(N)(=O)=O)cc1`, the melting point fell in the range of 136 to 138 °C. For the molecule `Clc1ccc(Cl)c(-c2cc[nH]n2)c1`, the melting point lay in the range of 143 to 145 °C. For the molecule `Cc1cc(S(=O)(=O)Cl)ccc1OC(C)C`, the melting point was 50 to 52 °C. With `O=C1CCOc2cc3c(cc21)OCO3`, the melting point is 96 to 98 °C. In turn, `Cc1ccc(S(=O)(=O)N2CCCC2)cc1C(=O)O` displayed a melting point of 178 to 180 °C.

With `Cc1cccc(N)c1C(N)=O`, the melting point was 141 to 143 °C. On to `O=C1COc2ccc(Br)cc2N1CCCl`, for which the melting point lay within 117 to 119 °C. To `O=C(O)c1[nH]c2ccc(F)cc2c1Cl` belongs 279 to 281 °C; to `O=S1(=O)Nc2ncnn2-c2ccccc21`, 284 to 286 °C; to `Cc1ccc(C(=O)NO)cc1O`, 169 to 171 °C. In turn, `Nc1nc2c(C(F)(F)F)cccc2s1` returned a melting point of 48 to 50 °C.

Take `COC(=O)c1cc(F)cc(S(=O)(=O)Cl)c1Br`: the melting point was in the range of 73 to 75 °C. For `O=C(O)Cc1cccc(OCc2ccccn2)c1`, the melting point is 123 to 125 °C. The molecule `C=CC(=O)Nc1cccc(Cl)c1` displayed a melting point of 106 to 108 °C. In turn, `Nc1nc(-c2ccccc2O)cs1` came in with a melting point of 140 to 142 °C. In the case of `Cc1oc(-c2ccccc2F)nc1C(=O)O`, the melting point lay in the range of 174 to 176 °C.

`Cc1nn(-c2ccccc2)c(C)c1C(=O)C(=O)O`: the melting point was 206 to 208 °C. Take `O=C(O)c1ccc(N2CCCS2(=O)=O)cc1Cl`: the melting point fell in the range of 226 to 228 °C.

Molecule `Cc1ccc(N)cc1NC(=O)CN1CCCCC1` registered a melting point of 108 to 110 °C. With `Cc1ccc2c(CCC(=O)O)c[nH]c2c1`, the melting point was 127 to 129 °C. Consider `COc1cccc2[nH]cc(CC(=O)O)c12`, for which the melting point lay in the range of 174 to 176 °C. In turn, `CC(C)c1ccc(CCNC(=O)CCl)cc1` showed a melting point of 54 to 56 °C.

The molecule `Cn1cc(S(=O)(=O)N2CCOCC2)cc1C(=O)NC(=O)CCl` had a melting point of 229 to 231 °C.

`BrCc1cccc2ccccc12` returned a melting point of 49 to 51 °C. Molecule `CCOc1c(Br)cc(C(=O)O)cc1OC` returned a melting point of 140 to 142 °C. To `CC1CN(c2cc(N)cc(F)c2)CC(C)O1` (stereo not drawn) belongs 80 to 82 °C; to `Cc1cccc(C)c1OCCO`, 70 to 72 °C; to `Cn1ccnc1CC(=O)c1ccccc1`, 96 to 98 °C.

Molecule `NC(=O)C1CCCCN1C(=O)CCl` (stereo not drawn) gave a melting point of 149 to 151 °C. The molecule `Nc1nc(Sc2ccccc2)ns1` returned a melting point of 154 to 156 °C.

The molecule `O=C(O)c1ccc(C2SCCS2)cc1` showed a melting point of 166 to 168 °C. `O=C(O)CSC1=NS(=O)(=O)c2ccccc21` showed a melting point of 213 to 215 °C. The value for `COc1ccc(C(C)=O)cc1CSCC(=O)O` was 106 to 108 °C; that for `Cc1ccc(N(C(=O)CCCl)C2C=CS(=O)(=O)C2)cc1C` (stereo not drawn) was 122 to 124 °C; that for `COC(=O)c1sc(-c2ccccc2)cc1O` was 94 to 96 °C. To `CC(C)C(C(=O)O)c1ccc(F)cc1` (stereo not drawn) belongs 59 to 61 °C. To `C1C2CC3CC1CC(C2)C31CO1` (stereo not drawn) belongs 180 to 182 °C; to `c1ccc(CCNc2nccs2)cc1`, 68 to 70 °C; to `CN(C)S(=O)(=O)c1ccc2c(c1)NCC2`, 121 to 123 °C. Take `O=S(=O)(Cl)c1c[nH]c2ncccc12`: the melting point is 187 to 189 °C. `O=C(O)C1=Nc2cccc3cccc(c23)N1` registered a melting point of 210 to 212 °C. To `Nc1ccc(CCC(=O)O)cn1` belongs 199 to 201 °C; to `Oc1ccc(-c2nc3ccccc3[nH]2)cn1`, 238 to 242 °C. `O=C(CCl)NCCOc1ccccc1` displayed a melting point of 67 to 69 °C. With `COc1ccccc1CNc1cccc2cnccc12`, the melting point lay within 118 to 120 °C. As to `Nc1cccc(NC(=O)c2ccncc2)c1`, the melting point was in the range of 185 to 187 °C.

Molecule `O=C1CCS(=O)(=O)CC1` registered a melting point of 167 to 169 °C. The value for `CCOC(=O)C1=NN(CC)C(=O)C1` was 135 to 137 °C. Consider `CC(=O)NCc1ccc(C(=O)CCl)cc1`, for which the melting point lay in the range of 139 to 141 °C. `O=C1COc2ccc(Cl)cc2N1` came in with a melting point of 211 to 213 °C. The value for `Cc1cc(CN2CCSCC2)ccc1N` was 106 to 108 °C; that for `COc1ccc(-n2ccnc2SCC(=O)O)cc1` was 125 to 127 °C; that for `NC(=O)c1ccc(N)cn1` was 169 to 171 °C. To `CNC(=O)c1cc(S(=O)(=O)Cl)cn1C` belongs 154 to 156 °C. The molecule `Clc1cc(N2CCNCC2)ncn1` returned a melting point of 100 to 102 °C. To `O=C(O)C=Cc1cccc2cccnc12` belongs 188 to 190 °C. In turn, `CS(=O)(=O)c1ccc(OCCC(=O)O)cc1` registered a melting point of 108 to 110 °C. The molecule `Nc1ccc2c(c1)NC(=O)CO2` displayed a melting point of 215 to 217 °C. The molecule `O=[N+]([O-])c1ccc2c(c1)S(=O)(=O)C=C2` yielded a melting point of 179 to 181 °C. To `Cc1sc2nc(CN3CCCC3)nc(Cl)c2c1C` belongs 68 to 72 °C; to `CC(C)(C)OC(=O)NCC1CCCCS1` (stereo not drawn), 70 to 72 °C; to `CNC(C(N)=O)c1cccc(F)c1` (stereo not drawn), 153 to 155 °C. The value for `Cc1cccc(OC(C)C(=O)O)c1C` (stereo not drawn) was 123 to 125 °C; that for `O=C(O)C1CCC(=O)N(Cc2ccccc2)C1c1ccccc1` (stereo not drawn) was 164 to 166 °C. `NNc1ccc(S(=O)(=O)NC2CCCCCCC2)cn1` displayed a melting point of 140 to 142 °C.
